The structures appear in SMILES notation.

The target of the first assay is T1, GCS (Canis lupus familiaris, UniProt A0A8I3MXG6).
T1 sequence (A0A8I3MXG6 1-394): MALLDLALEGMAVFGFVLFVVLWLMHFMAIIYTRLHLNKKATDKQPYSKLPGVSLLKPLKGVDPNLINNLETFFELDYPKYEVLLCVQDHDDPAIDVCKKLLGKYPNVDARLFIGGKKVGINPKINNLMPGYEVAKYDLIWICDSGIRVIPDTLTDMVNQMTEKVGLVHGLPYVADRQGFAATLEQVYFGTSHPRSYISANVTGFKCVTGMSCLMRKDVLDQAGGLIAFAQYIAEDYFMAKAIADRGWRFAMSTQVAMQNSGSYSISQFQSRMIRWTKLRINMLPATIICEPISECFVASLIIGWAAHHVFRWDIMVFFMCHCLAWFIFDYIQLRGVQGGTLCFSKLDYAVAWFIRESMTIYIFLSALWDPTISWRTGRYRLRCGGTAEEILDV
As to the kind of experiment: Assay 1: GCS Enzymatic Assay (MDCK cell lysate, C6-NBD-Ceramide, LC/MS). It counts as biochemical, canine. As to conditions: Table 2; data marked by *. The method, boiled down: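 LC/MS/MS measurement of glucosylceramide and NBD-ceramide after a 1 h, 37 °C reaction with 100 μM UDP-glucose and 10 μM C6-NBD-ceramide gave IC50s or percent inhibition.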
Take `O=C(N[C@H](CN1CCC1)[C@H](O)c1ccc(OC2CC2)c(Cl)c1)/C(CCc1ccc2ccccc2c1)=N/O` [Compound 164, (E)-N-((1R,2R)-3-(azetidin-1-yl)-1-(3-chloro-4-cyclopropoxyphenyl)-1-hydroxypropan-2-yl)-2-(hydroxyimino)-4-(naphthalen-2-yl)butanamide]: the “% inhibition generated from Assay 1” value was “A* (the compound had a % inhibition of a percent inhibition of greater than or equal to about 50%)”.
Turning to `CC(C)(O)COc1ccc([C@H](O)[C@@H](CN2CCCC2)NC(=O)C(F)(F)c2cc3cc(Cl)ccc3o2)cc1Cl` [Compound 168, N-((1S,2R)-1-(3-chloro-4-(2-hydroxy-2-methylpropoxy)phenyl)-1-hydroxy-3-(pyrrolidin-1-yl)propan-2-yl)-2-(5-chlorobenzofuran-2-yl)-2,2-difluoroacetamide], the “% inhibition generated from Assay 1” value is reported as “B* (the compound had a % inhibition of greater than or equal to about 3% but less than about 50%)”.
Still for that read-out and setting: next, `O=C(N[C@H](CN1CCC1)[C@H](O)c1ccc(OC2CC2)c(Cl)c1)/C(=N/O)c1cc2cc(Cl)ccc2o1` [Compound 169, (E)-N-((1R,2R)-3-(azetidin-1-yl)-1-(3-chloro-4-cyclopropoxyphenyl)-1-hydroxypropan-2-yl)-2-(5-chlorobenzofuran-2-yl)-2-(hydroxyimino)acetamide]: “A* (the compound had a % inhibition of a percent inhibition of greater than or equal to about 50%)”; `O=C(CCc1ccc2ccccc2c1)C(=O)N[C@H](CN1CCC1)[C@H](O)c1ccc(OC2CC2)c(Cl)c1` [Compound 170, N-((1R,2R)-3-(azetidin-1-yl)-1-(3-chloro-4-cyclopropoxyphenyl)-1-hydroxypropan-2-yl)-4-(naphthalen-2-yl)-2-oxobutanamide]: “B* (the compound had a % inhibition of greater than or equal to about 3% but less than about 50%)”; `O=C(N[C@H](CN1CCCC1)[C@H](O)c1ccc(OC2CC2)c(Cl)c1)C(F)(F)c1ccc(-c2ccc(F)cn2)cc1` [Compound 178, N-((1R,2R)-1-(3-chloro-4-cyclopropoxyphenyl)-1-hydroxy-3-(pyrrolidin-1-yl)propan-2-yl)-2,2-difluoro-2-(4-(5-fluoropyridin-2-yl)phenyl)acetamide]: “A* (the compound had a % inhibition of a percent inhibition of greater than or equal to about 50%)”.
The same measure, in the same setting: next, `O=C(N[C@H](CN1CCCC1)[C@H](O)c1ccc2c(c1)OCCO2)C(F)(F)c1ccc(-c2ccc(F)cn2)cc1` [Compound 179, N-((1R,2R)-1-(2,3-dihydrobenzo[b][1,4]dioxin-6-yl)-1-hydroxy-3-(pyrrolidin-1-yl)propan-2-yl)-2,2-difluoro-2-(4-(5-fluoropyridin-2-yl)phenyl)acetamide]: “A* (the compound had a % inhibition of a percent inhibition of greater than or equal to about 50%)”.

The assay is the same for the next values; noted with them: Table 2; data without asterisk; read-out: IC50 (nM) generated from Assay 1.
In the case of `O=C(N[C@H](CN1CCCC1)[C@H](O)c1ccc(OC2CCOCC2)c(Cl)c1)C(F)(F)c1ccc(-c2ccc(F)cc2)cc1` [Compound 163, N-((1R,2R)-1-(3-chloro-4-((tetrahydro-2H-pyran-4-yl)oxy)phenyl)-1-hydroxy-3-(pyrrolidin-1-yl)propan-2-yl)-2,2-difluoro-2-(4′-fluoro-[1,1′-biphenyl]-4-yl)acetamide], the IC50 is < 50 nM.
The same measure, in the same setting: the figure for `O=C(N[C@H](CN1CCCC1)[C@H](O)c1ccc2c(c1)OCCO2)C(F)(F)CCc1ccc2c(c1)CCCC2` [Compound 165, N-((1R,2R)-1-(2,3-dihydrobenzo[b][1,4]dioxin-6-yl)-1-hydroxy-3-(pyrrolidin-1-yl)propan-2-yl)-2,2-difluoro-4-(5,6,7,8-tetrahydronaphthalen-2-yl)butanamide] is < 50 nM.
On to `O=C(N[C@H](CN1CCCC1)[C@H](O)c1ccc(OC2CC2)c(Cl)c1)C(F)(F)CCc1ccc2c(c1)CCCC2` [Compound 166, N-((1R,2R)-1-(3-chloro-4-cyclopropoxyphenyl)-1-hydroxy-3-(pyrrolidin-1-yl)propan-2-yl)-2,2-difluoro-4-(5,6,7,8-tetrahydronaphthalen-2-yl)butanamide], for which the half-inhibitory concentration (IC50) is < 50 nM.
Same read-out and setting: the figure for `O=C(N[C@H](CN1CCCC1)[C@H](O)c1cc(F)c2c(c1)OCCO2)C(F)(F)CCc1ccc2c(c1)CCCC2` [Compound 167, 2,2-difluoro-N-((1R,2R)-1-(8-fluoro-2,3-dihydrobenzo[b][1,4]dioxin-6-yl)-1-hydroxy-3-(pyrrolidin-1-yl)propan-2-yl)-4-(5,6,7,8-tetrahydronaphthalen-2-yl)butanamide] is < 50 nM; for `O=C(N[C@H](CN1CCC1)[C@H](O)c1ccc(OC2CC2)c(Cl)c1)C(F)(F)CCc1ccc2ccccc2c1` [Compound 171, N-((1R,2R)-3-(azetidin-1-yl)-1-(3-chloro-4-cyclopropoxyphenyl)-1-hydroxypropan-2-yl)-2,2-difluoro-4-(naphthalen-2-yl)butanamide] it is < 50 nM.
Turning to `O=C(N[C@H](CN1CCCC1)[C@H](O)c1ccc(OC2CC2)c(Cl)c1)C(=O)c1ccc2cc(Cl)ccc2c1` [Compound 172, N-((1R,2R)-1-(3-chloro-4-cyclopropoxyphenyl)-1-hydroxy-3-(pyrrolidin-1-yl)propan-2-yl)-2-(6-chloronaphthalen-2-yl)-2-oxoacetamide], the half-maximal inhibitory concentration (IC50) is < 50 nM.
Still for that read-out and setting: next, `O=C(N[C@H](CN1CCCC1)[C@H](O)c1ccc(OC2CC2)c(Cl)c1)/C(=N/O)c1ccc2cc(Cl)ccc2c1` [Compound 173, (E)-N-((1R,2R)-1-(3-chloro-4-cyclopropoxyphenyl)-1-hydroxy-3-(pyrrolidin-1-yl)propan-2-yl)-2-(6-chloronaphthalen-2-yl)-2-(hydroxyimino)acetamide]: < 50 nM; `O=C(N[C@H](CN1CCCC1)[C@H](O)c1ccc2c(c1)OCCO2)C(=O)c1ccc(-c2ccc(F)cc2)s1` [Compound 174, N-((1R,2R)-1-(2,3-dihydrobenzo[b][1,4]dioxin-6-yl)-1-hydroxy-3-(pyrrolidin-1-yl)propan-2-yl)-2-(5-(4-fluorophenyl)thiophen-2-yl)-2-oxoacetamide]: < 50 nM; `O=C(N[C@H](CN1CCCC1)[C@H](O)c1ccc(OC2CC2)c(Cl)c1)C(=O)c1ccc(-c2ccc(F)cn2)cc1` [Compound 175]: < 50 nM.
For the molecule `O=C(N[C@H](CN1CCCC1)[C@H](O)c1cc(F)c2c(c1)OCCO2)C(=O)c1ccc(-c2ccc(F)cn2)cc1` [Compound 176, N-((1R,2R)-1-(8-fluoro-2,3-dihydrobenzo[b][1,4]dioxin-6-yl)-1-hydroxy-3-(pyrrolidin-1-yl)propan-2-yl)-2-(4-(5-fluoropyridin-2-yl)phenyl)-2-oxoacetamide], the half-maximal inhibitory concentration (IC50) is < 50 nM.
The same measure, in the same setting: next, `O=C(N[C@H](CN1CCCC1)[C@H](O)c1ccc(OC2CCOCC2)c(Cl)c1)/C(=N/O)c1ccc(-c2ccc(F)cc2)cc1` [Compound 177, (E)-N-((1R,2R)-1-(3-chloro-4-((tetrahydro-2H-pyran-4-yl)oxy)phenyl)-1-hydroxy-3-(pyrrolidin-1-yl)propan-2-yl)-2-(4′-fluoro-[1,1′-biphenyl]-4-yl)-2-(hydroxyimino)acetamide]: < 50 nM.

Values taken from US10227323B2, “Glucosylceramide synthase inhibitors for the treatment of diseases” (BIOMARIN PHARMACEUTICAL INC., priority 2013, dated 2019).
